Source: patent US10640457B2, “Histone acetyltransferase activators and uses thereof” (The Trustees of Columbia University in the City of New York, priority 2009, dated 2020)
Values joined by “and” are separate entries in the source; they are usually repeats but may differ in a detail not shown here. Equal values may be shown once. “Also recorded” adds a separate entry of the source.

Experiments:
[1] = system: hippocampal slices from APP/PS1 mice; experiment: CA1 LTP in hippocampal slices of APP/PS1 and WT mice (TSA)
Protocol: At this age the Tg mice just start showing the synaptic plasticity and memory impairments [A29] (herein incorporated by reference in its entirety). Basal synaptic transmission (BST) was similar between APP/PS1 and WT mice. We found no difference in BST among the 2 groups as previously shown in mice of this age [A29] (herein incorporated by reference in its entirety). Hippocampal slices were then perfused with TSA (1.65 μM) for 30 min before inducing LTP through tetanic stimulation of the Schaeffer collateral pathway. Potentiation in TSA treated APP/P S1 slices was far greater than in vehicle-treated APP/PS1 slices (FIG. 17). […] The observation that inspired these studies was the result of a series of experiments in which we tested whether a brief application of the HDAC inhibitor TSA was capable of rescuing the defect in LTP shown by slices from 3-4 month-old APP/PS1 mice (for a detailed description of the experiments showing the characterization of these mice [B50]; herein incorporated by reference in its entirety). At this age the transgenic mice just start showing the synaptic plasticity and memory impairments [B14, B50] (each herein incorporated by reference in its entirety)). […] (each herein incorporated by reference in its entirety), basal synaptic transmission (BST) was similar between APP/PS1 and WT mice. Hippocampal slices were then perfused with TSA (1.65 nM) for 30 min before inducing LTP through tetanic stimulation of the Schaeffer collateral pathway. Potentiation in TSA treated APP/PS1 slices was far greater than in vehicle-treated APP/PS1 slices (two-way ANOVA: F1,11=13.166, p=0.004; FIG. 17). […] Thus, HDAC inhibition is capable of rescuing the defect in LTP in the APP/PS1 animal model of Aβ deposition.

[2] = target: T1, HDAC11 (Homo sapiens, UniProt Q96DB2); experiment: HDAC11 fluorogenic activity assay; conditions: for % Activity: Repeat1/Repeat2, listed as OA2
T1 sequence (Q96DB2 1-347): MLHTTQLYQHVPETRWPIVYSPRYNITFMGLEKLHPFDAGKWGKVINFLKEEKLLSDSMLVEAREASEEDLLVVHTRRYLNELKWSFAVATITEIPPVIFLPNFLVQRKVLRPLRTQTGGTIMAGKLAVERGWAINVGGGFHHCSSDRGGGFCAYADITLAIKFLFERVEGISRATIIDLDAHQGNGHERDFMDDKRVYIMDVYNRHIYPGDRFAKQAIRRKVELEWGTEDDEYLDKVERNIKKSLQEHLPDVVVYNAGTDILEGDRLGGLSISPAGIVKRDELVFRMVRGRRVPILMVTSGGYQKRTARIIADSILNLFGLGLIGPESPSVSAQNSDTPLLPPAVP

[3] = target: T2, Sirtuin 2 (Homo sapiens, UniProt Q8IXJ6); experiment: Sirtuin 2 fluorogenic activity assay; conditions: for % Activity: Repeat1/Repeat2, listed as OA2
T2 sequence (Q8IXJ6 1-389): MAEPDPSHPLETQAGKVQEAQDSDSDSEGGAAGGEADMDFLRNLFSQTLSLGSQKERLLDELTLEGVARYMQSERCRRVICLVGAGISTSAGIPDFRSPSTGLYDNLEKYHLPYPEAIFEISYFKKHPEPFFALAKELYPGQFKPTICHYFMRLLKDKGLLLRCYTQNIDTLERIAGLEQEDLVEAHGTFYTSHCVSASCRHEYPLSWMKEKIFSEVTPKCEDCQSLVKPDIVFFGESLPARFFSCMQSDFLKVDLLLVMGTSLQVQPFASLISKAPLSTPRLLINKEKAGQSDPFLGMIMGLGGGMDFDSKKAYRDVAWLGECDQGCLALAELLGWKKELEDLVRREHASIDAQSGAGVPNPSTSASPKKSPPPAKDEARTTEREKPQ

[4] = target: T3, Sirtuin 1 (Homo sapiens, UniProt Q96EB6); experiment: Sirtuin 1 fluorogenic activity assay; conditions: for % Activity: Repeat1/Repeat2, listed as OA2
T3 sequence (Q96EB6 1-747): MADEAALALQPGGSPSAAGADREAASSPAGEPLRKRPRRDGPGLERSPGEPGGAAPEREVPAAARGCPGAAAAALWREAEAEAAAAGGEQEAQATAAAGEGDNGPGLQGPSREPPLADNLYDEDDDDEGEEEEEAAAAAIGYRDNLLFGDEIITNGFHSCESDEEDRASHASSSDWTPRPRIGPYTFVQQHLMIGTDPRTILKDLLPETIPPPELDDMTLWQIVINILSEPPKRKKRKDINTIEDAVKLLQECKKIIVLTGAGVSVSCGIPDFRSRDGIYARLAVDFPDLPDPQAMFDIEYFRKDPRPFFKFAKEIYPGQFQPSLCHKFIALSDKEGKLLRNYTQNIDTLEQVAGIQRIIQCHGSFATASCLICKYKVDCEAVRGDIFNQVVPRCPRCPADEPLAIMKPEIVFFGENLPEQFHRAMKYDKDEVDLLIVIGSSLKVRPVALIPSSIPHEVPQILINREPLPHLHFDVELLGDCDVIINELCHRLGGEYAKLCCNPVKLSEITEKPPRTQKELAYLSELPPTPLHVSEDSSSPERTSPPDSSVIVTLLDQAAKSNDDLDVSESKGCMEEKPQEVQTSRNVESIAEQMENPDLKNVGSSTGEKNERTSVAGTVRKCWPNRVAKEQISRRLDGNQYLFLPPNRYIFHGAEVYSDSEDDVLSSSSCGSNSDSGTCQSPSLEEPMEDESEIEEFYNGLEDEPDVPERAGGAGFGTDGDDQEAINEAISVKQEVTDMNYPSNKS

[5] = target: HDAC3/NCOR2 (Homo sapiens, UniProt O15379); experiment: HDAC3/NCOR2 fluorogenic activity assay
HDAC3/NCOR2, sequence (O15379 whole entry): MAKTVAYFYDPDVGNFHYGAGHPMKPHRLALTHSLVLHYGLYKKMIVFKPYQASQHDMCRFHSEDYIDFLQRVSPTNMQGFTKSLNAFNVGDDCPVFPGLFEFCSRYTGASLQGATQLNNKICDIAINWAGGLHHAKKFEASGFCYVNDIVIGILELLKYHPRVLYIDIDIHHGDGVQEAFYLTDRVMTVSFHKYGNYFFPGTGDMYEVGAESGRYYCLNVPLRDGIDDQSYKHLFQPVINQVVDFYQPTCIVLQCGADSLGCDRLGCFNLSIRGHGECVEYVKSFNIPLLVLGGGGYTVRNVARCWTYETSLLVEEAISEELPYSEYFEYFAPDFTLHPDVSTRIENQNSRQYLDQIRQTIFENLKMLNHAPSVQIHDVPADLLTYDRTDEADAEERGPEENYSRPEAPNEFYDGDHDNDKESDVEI
HDAC3/NCOR2, sequence (Q9Y618 395-489 partner limits assumed): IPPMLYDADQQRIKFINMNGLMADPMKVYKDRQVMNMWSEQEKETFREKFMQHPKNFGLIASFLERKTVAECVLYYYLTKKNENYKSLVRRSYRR

`CC(/C=C/C(=O)NO)=C\[C@@H](C)C(=O)c1ccc(N(C)C)cc1` [TSA, trichostatin A] was tested, and the baseline transmission ([1]; APP/PS1 and WT slices that received no tetanus) was “did not affect”, the “amplitude of LTP in WT slices” value ([1]; WT slices, TSA perfused 30 min) was “did not change; also recorded: no effect” and the “potentiation (LTP) vs vehicle-treated APP/PS1 slices” value ([1]; slices of 3-4 month-old APP/PS1 mice, TSA perfused 30 min before tetanus) was “far greater; also recorded: reverses”.

With `CCOc1cccc(OCCN(C)C)c1C(=O)Nc1ccc(Cl)c(C(F)(F)F)c1` [YF2] the IC50 [2] was greater than 200 µM, the “% Activity” value ([2]; OA2 Log[nM] 0.5) was 86.81% and the “% Activity” value ([2]; OA2 Log[nM] 4.5) was 108.09%. The “% Activity” value ([2]; OA2 Log[nM] 5.3) was 132.07% and 115.35%, the IC50 [3] was greater than 200 µM and the “% Activity” value ([3]; OA2 Log[nM] 0.5) was 97.71% and 101.89%. For the same compound, the “% Activity” value ([3]; OA2 Log[nM] 1.0) was 96.21% and 97.38%, the “% Activity” value ([3]; OA2 Log[nM] 1.5) was 98.59% and 101.33% and the “% Activity” value ([3]; OA2 Log[nM] 2.0) was 94.20% and 99.91%. The “% Activity” value ([3]; OA2 Log[nM] 2.5) was 94.74% and 96.43%, the “% Activity” value ([3]; OA2 Log[nM] 3.0) was 94.53% and 98.73% and the “% Activity” value ([3]; OA2 Log[nM] 3.5) was 96.80% and 98.23%. The “% Activity” value ([3]; OA2 Log[nM] 4.0) was 97.71% and 98.83%, the “% Activity” value ([3]; OA2 Log[nM] 4.5) was 92.45% and 95.14% and the “% Activity” value ([3]; OA2 Log[nM] 5.3) was 98.64% and 99.53%. The IC50 [4] was greater than 200 µM, the “% Activity” value ([4]; OA2 Log[nM] 0.5) was 94.26% and 99.92% and the “% Activity” value ([4]; OA2 Log[nM] 1.0) was 87.25% and 99.42%. For the same compound, the “% Activity” value ([4]; OA2 Log[nM] 1.5) was 100.27% and 87.48%, the “% Activity” value ([4]; OA2 Log[nM] 2.0) was 97.98% and 92.56% and the “% Activity” value ([4]; OA2 Log[nM] 2.5) was 101.56% and 100.81%. For the same compound, the “% Activity” value ([4]; OA2 Log[nM] 3.0) was 108.86% and 94.87%, the “% Activity” value ([4]; OA2 Log[nM] 3.5) was 96.93% and 100.23% and the “% Activity” value ([4]; OA2 Log[nM] 4.0) was 96.69% and 89.85%. For the same compound, the “% Activity” value ([4]; OA2 Log[nM] 4.5) was 98.83% and 93.79%, the “% Activity” value ([4]; OA2 Log[nM] 5.3) was 99.02% and 100.98% and the IC50 [5] was greater than 200 µM.
